Results reported in patent EP2753335B1, “AN ANTHRACYCLINE FOR THE TREATMENT OF SEPSIS” (Instituto de Medicina Molecular, priority 2011, dated 2013).
Structures can show the parent of a compound that is named as a salt.

How the values were obtained:
IL-1β [1] = test: In vitro chemical screen (Spectrum collection): IL-1β secretion by E. coli challenged THP-1 cells, DAS-ELISA; assay type: cell-based, human; conditions: THP-1 cells, 10µM compound for 1 hour, then PFA-fixed E. coli (MOI 20) for 24 hours
Procedure: (§1) We identified 45 leading candidates (Figure 1A and Table I) that inhibited both cytokines.
(§2) THP-1 human monocytes (American Tissue Culture Collection-ATCC TIB-202) were plated in 96 well plates at 10^6 cell/ml and incubated with each one of ∼2320 compounds included in the Spectrum collection (Microsource Discovery Systems, Gaylordsville, CT) at 10µM for 1 hour. Cells were then challenged with 4% PFA-fixed DH5α E.coli at a Multiplicity of Infection (MOI) of 20 bacterial cells per THP-1 cell for an additional 24 hours. The cell supernatants were collected and IL-1β and TNF cytokines quantified by DAS-ELISA, using Human IL-1β/IL-1F2 DuoSet® and Human TNF DuoSet® (R&D Systems ®), respectively, according to company's protocol.
(§3) We generated a working subset of The RNAi Consortium (TRC) shRNA lentiviral vector library ^33,33 that allows for the silencing of most of the genes that are either human kinases or phosphatases. This subset was composed of 1440 individually arrayed lentiviral shRNA vectors targeting ∼700 genes, after selecting the most efficient shRNAs (two on average) based on available silencing efficiency data from the Broad Institute of MIT and Harvard. THP-1 cells were plated in 96 well plates at 10^6 cell/ml and infected with shRNA-expressing lentivirus. 48 hrs later infected cells were selected with puromycin. After the 3 days of selection, plates were duplicated. One of the plates was used to measure the cell number using Alamar Blue® cell viability assay (Invitrogeia®), according to manufacturer's instructions. In the other plate, cells were stimulated with 4% PFA-fixed DH5α E.coli at a Multiplicity of Infection (MOI) of 20 bacterial cells per THP-1 cell. Twenty-four hours after stimulation, cell supernatants were collected and IL-1β and TNF cytokines quantified by DAS-ELISA. All data values from IL-1β and TNF secretion assays were normalized by dividing the amount of IL-1β and TNF in the conditioned media 24, 12, 8, 6, 4 or 2 hrs after E. coli stimulation by the number of cells in each well and then by the average concentration per cell of the plate. Results were logarithmic natural transformed. Scores were sorted in ascending order and graphed. We calculated 1.5 SDEVs above and below the mean to identify the genes that changed IL-1β and TNF secretion when silenced. The same approach was used to identify the compounds that changed IL-1β and TNF secretion. The selected genes were submitted to two or more rounds of phenotypic validation.

TNF [2] = test: In vitro chemical screen (Spectrum collection): TNF secretion by E. coli challenged THP-1 cells, DAS-ELISA; assay type: cell-based, human; conditions: THP-1 cells, 10µM compound for 1 hour, then PFA-fixed E. coli (MOI 20) for 24 hours
Procedure: as §1, §2, §3

[3] = tested on: C57BL/6 mice subjected to CLP; test: Cecal ligation and puncture (CLP) mouse model of severe sepsis, survival; assay type: in vivo; conditions: for protection against severe CLP (survival, in words): doxorubicin 0.5ug/g, daunorubicin 0.6µg/g body weight at the time of procedure and 24 hours later, Figure 6
Procedure: We choose the cecal ligation and puncture (CLP) mouse model to investigate the in vivo effects of epirubicin. In CLP, sepsis results from a polymicrobial infectious abdominal origin, leading to bacteraemia and a systemic inflammatory response^15.
Animal care and experimental procedures were conducted in accordance with Portuguese and US guidelines and regulations after approval by the respective local committees (Instituto de Medicina Molecular and Instituto Gulbenkian de Ciência). All mice used were 8-12 weeks old. Mice were bred and maintained under specific pathogen-free (SPF) conditions. C57BL/6 and C57BL/6 ATM^-/- were obtained from the Instituto Gulbenkian de Ciência (a kind gift from Dr. Vasco Barreto). C57BL/6 Nrf2^-/- mice were provided originally from the RIKEN BioResource Center (Koyadai, Tsukuba, Ibaraki, Japan)^31 and subsequently at the Institute Gulbenkian de Ciência. Cecal Ligation and Puncture was performed as described previously^15.

TNF [4] = test: Concentration-response validation: TNF production by E. coli challenged THP-1 cells; assay type: cell-based; conditions: Homo sapiens; E. coli challenged THP-1 cells (4 hours) after pre-incubation (1 hour) with increasing concentrations; read-out: half-inhibitory concentration (IC50) for TNF
Procedure: (§4) • Figure 1 represents a primary screen to identify compounds in the Spectrum Collection library that inhibit the secretion of TNF and IL-1β. (A) it is a two-dimension plot of TNF and IL-1β production Z scores calculated upon THP-1 cells challenge with PFA-fixed E. coli for 24 hours in the presence of 10µM of each compound. The square defines the area in which compounds are considered primary hits, i.e., inhibiting both TNF and IL-1β, (B) represents the IL-1β and TNF production by E. coli challenged THP-1 cells (4 hours) after a pre-incubation (1 hour) with increasing concentrations of epirubicin. Results shown represent mean ± standard deviation from triplicate samples in one of 3 independent assays. (C) is a transcriptional profiling of THP-1 cell line response to epirubicin and unsupervised clustering of microarray expression profiles. […] Plots depict relative expression of IL-1β, TNF, CCL2, CXCL10, STAT1, STAT2, START4 and STAT5a as assessed by qRT-PCR in E. coli challenged THP-1 cells (4 hours) after a pre-incubation (1 hour) with 5µM epirubicin. […] Results shown represent mean values ± SEM from triplicate readings per animal. […] (D) relates to the expression of IL-1β, TNF, CCL2 and CXCL10 as assessed by qRT-PCR in THP-1 cells treated as in (C). […]

IL-1β [5] = test: Concentration-response validation: IL-1β production by E. coli challenged THP-1 cells; assay type: cell-based, human
Procedure: as §4

muHV-4 virus = test: Clearance of a secondary intranasal infection one week after administration; assay type: in vivo; conditions: compared with control mice, unpublished data
THP-1 cells = test: Autophagy induction in THP-1 cells, flow cytometry with Cyto-ID Green; assay type: cell-based, human; conditions: KU-55933 2µM plus epirubicin 1µM (1 hour), PFA-fixed E. coli 4 hours

| Molecule | Z score IL1b (IL-1β [1]) | Z score TNFa (TNF [2]) | also measured |
| --- | --- | --- | --- |
| COc1cccc2c1C(=O)c1c(O)c3c(c(O)c1C2=O)C[C@@](O)(C(C)=O)C[C@@H]3O[C@H]1C[C@H](N)[C@H](O)[C@H](C)O1 [Daunorubicin] | -0,995459172 | -3,007093086 | protection against severe CLP (survival, in words) [3]: comparable protection |
| COc1cccc2c1C(=O)c1c(O)c3c(c(O)c1C2=O)C[C@@](O)(C(=O)CO)C[C@@H]3O[C@H]1C[C@H](N)[C@H](O)[C@H](C)O1 [Doxorubicin] | -2,412138965 | -4,071115136 | protection against severe CLP (survival, in words) [3]: comparable protection |
| COc1cccc2c1C(=O)c1c(O)c3c(c(O)c1C2=O)C[C@@](O)(C(=O)CO)C[C@@H]3O[C@H]1C[C@H](N)[C@@H](O)[C@H](C)O1 [Epirubicin hydrochloride] | -1,212875226 | -4,474857631 | increase of survival of mice subjected to CLP ([3]; i.p. in PBS at the time of CLP and 24hrs later, total 1.2µg/g body weight, no antibiotic, wildtype C57BL/6): ~80%; IC50 (TNF [4]): 0.5 µM; IC50 (IL-1β [5]; Homo sapiens, THP-1, read-out: half-inhibitory concentration (IC50) for IL-1β): 0.4 µM; immune competence: clearance of secondary intranasal muHV-4 infection (muHV-4 virus): not immunocompromised |
| O=c1cc(-c2cccc3c2Sc2ccccc2S3)oc(N2CCOCC2)c1 [KU-55933] |  |  | rescue of epirubicin-mediated IL-1β down-regulation (IL-1β [5]; KU-55933 2µM together with epirubicin 1µM, THP-1 cells, E. coli 4 hours): could be rescued; effect of ATM inhibitor pre-treatment on epirubicin-induced autophagy (THP-1 cells): eliminates this effect |
| Cc1cc(/C=C/c2ccc3cc(N(C)C)ccc3[n+]2C)c(C)n1-c1ccccc1 [Pyrvinium pamoate] | -1,683811286 | -2,268148981 |  |
| C[n+]1cc2c3c(ccc2c2ccc4cc5c(cc4c21)OCO5)OCO3 [Sanguinarine sulfate] | -1,160017114 | -2,651620816 |  |
| C[C@H]1CC[C@]2(NC1)O[C@H]1C[C@H]3[C@@H]4CC[C@H]5C[C@@H](O[C@@H]6O[C@H](CO)[C@H](O[C@@H]7O[C@H](CO)[C@@H](O)[C@H](O[C@@H]8OC[C@@H](O)[C@H](O)[C@H]8O)[C@H]7O[C@@H]7O[C@H](CO)[C@@H](O)[C@H](O)[C@H]7O)[C@H](O)[C@H]6O)CC[C@]5(C)[C@H]4CC[C@]3(C)[C@H]1[C@@H]2C [Tomatine] | -2,626087357 | -4,440219344 |  |
| COc1cc([C@@H]2c3cc4c(cc3[C@@H](O[C@@H]3O[C@@H]5CO[C@@H](C)O[C@H]5[C@H](O)[C@H]3O)[C@H]3COC(=O)[C@H]23)OCO4)cc(OC)c1O [etoposide] |  |  | rescue of mortality induced by CLP ([3]; etoposide 2.0µg/g body weight, at the time of procedure and 24 hours later, wildtype C57BL/6): only partially rescues the mortality induced by CLP |
| C=C1C(=O)O[C@@H]2[C@H]3O[C@]3(C)CC/C=C(\C)CC[C@@H]12 [parthenolide] | -0,921962794 | -2,842267433 |  |
| Colistin sulfate | -0,918619053 | -3,457325884 |  |
| Gramicidin | -1,84556962 | -2,91855912 |  |
| Mepartricin | -1,081865327 | -2,504992413 |  |
| Pyrithione zinc | -1,872292546 | -2,951809549 |  |
